In one experiment the target is T1, cyclooxygenase (Rattus norvegicus, UniProt Q63921).
T1 construct: from tissue; host or cells: platelets in platelet-rich plasma from rat abdominal aorta blood (Jcl:wistar, male)
T1 sequence (Q63921 27-602): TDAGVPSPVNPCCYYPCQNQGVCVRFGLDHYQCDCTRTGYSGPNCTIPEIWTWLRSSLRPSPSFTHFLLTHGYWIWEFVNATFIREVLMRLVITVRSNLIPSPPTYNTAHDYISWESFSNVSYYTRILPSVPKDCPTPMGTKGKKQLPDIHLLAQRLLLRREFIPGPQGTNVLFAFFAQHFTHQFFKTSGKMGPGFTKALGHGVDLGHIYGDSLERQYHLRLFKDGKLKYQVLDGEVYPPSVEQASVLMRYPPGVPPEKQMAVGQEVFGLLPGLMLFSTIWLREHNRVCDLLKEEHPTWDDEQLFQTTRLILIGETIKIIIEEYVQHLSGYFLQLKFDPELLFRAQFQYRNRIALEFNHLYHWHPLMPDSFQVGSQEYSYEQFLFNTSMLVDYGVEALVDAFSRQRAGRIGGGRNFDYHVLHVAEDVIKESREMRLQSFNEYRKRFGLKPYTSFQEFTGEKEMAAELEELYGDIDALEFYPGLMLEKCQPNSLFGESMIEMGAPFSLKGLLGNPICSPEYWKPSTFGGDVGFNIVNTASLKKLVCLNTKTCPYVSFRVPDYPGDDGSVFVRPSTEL
Kind of experiment: Cyclooxygenase inhibitory activity (HHT formation from arachidonic acid in rat platelet-rich plasma). In kind it is cell-based, rat (Jcl:wistar).

Experiment [1] concerns Mouse phenylquinone writhing. Put plainly: Mouse phenylquinone writhing inhibitory activity. It is filed as in vivo, mouse (Slc: ICR). As to conditions: Mus musculus, po, 20 min, orally, read-out: Inhibitory percentage (phenylquinone writhing). Summed up: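 Male ICR mice (4 weeks, 17–24 g) dosed orally with compound suspended in 5% gum arabic. After 30 min, 0.02% phenylquinone (0.1 ml/10 g) given i.p.; writhing and stretching responses counted over 20 min.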

A further experiment concerns the target T2, 5-Lipoxygenase (Rattus norvegicus, UniProt P12527).
T2 construct: rat basophilic leukemia cell suspension; endogenous in cells
T2 sequence (P12527 1-673): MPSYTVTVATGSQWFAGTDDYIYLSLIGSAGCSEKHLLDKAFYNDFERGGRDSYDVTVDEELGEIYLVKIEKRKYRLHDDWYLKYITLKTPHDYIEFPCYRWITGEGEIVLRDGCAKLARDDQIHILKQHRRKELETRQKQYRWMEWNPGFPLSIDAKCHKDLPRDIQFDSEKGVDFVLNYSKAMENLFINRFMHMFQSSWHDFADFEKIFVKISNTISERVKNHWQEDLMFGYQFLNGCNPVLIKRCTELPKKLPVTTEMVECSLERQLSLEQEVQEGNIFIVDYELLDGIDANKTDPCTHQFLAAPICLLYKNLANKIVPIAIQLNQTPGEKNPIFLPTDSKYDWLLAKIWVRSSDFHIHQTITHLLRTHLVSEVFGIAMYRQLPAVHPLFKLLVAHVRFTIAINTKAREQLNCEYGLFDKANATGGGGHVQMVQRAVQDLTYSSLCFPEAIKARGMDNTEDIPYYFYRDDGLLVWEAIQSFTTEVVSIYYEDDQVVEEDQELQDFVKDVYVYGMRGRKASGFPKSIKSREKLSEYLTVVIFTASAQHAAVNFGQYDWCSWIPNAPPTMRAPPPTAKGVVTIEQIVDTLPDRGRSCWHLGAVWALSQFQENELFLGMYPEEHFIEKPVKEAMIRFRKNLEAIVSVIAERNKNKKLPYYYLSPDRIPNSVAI
Put plainly: 5-Lipoxygenase inhibitory activity in rat basophilic leukemia cells. In kind it is cell-based. The method, then:
5-Lipoxygenase Inhibitory Activity […] Then, 0.1 ml of mast cell medium containing 50 μg of arachidonic acid and 1 μg of calcium ionophore (A-23187) were added and the mixture was allowed to stand at 37° C. for 15 minutes. Ethanol (1 ml) was added thereto and the mixture was shaken well, and filtered (Membrane filter, 0.45 μm). […] As a control, the measurement was carried out according to the same manner except that 0.01 ml of the solvent used for dissolving the test compound was used in place of the test compound. The inhibitory percentage (%) was calculated from the following equation to obtain IC50.

For experiment [2], the system named is Rat carrageenin pedal edema. Kind of experiment: Rat carrageenin pedal edema inhibitory activity. As to conditions: Rattus norvegicus, po, 3 h, 50 mg/kg, orally, 3 hours after carrageenin; read-out: Inhibitory percentage (carrageenin pedal edema). In kind it is in vivo, rat (Jcl: SD). As to the method: Rat Carrageenin Pedal Edema Inhibitory Activity A Jcl: SD male rat (6 weeks old, weight 160-220 g) was used. After the mesurement of the volume of the dexter hind limb foot pad, a test compound suspended in 5% gum arabic solution was administered orally. Immediately after the administration, water was further administered orally so that the total administration volume of liquid became 5 ml/rat. After one hour, 0.05 ml of 1% carrageenin suspension in physiological saline was injected subcutaneously in the foot pad to induce edema [Winter, […]. and Nuss, G. W.: Proc. Soc. exp. […] Three hours after injection of carrageenin, the volume of the dexter limb was measured, and the edema volume was calculated by the difference between the volume after injection and the volume prior to injection.

In experiment [3] the test system is brewer's yeast induced pyrexia. Kind of experiment: Antipyretic activity (brewer's yeast induced pyrexia). In kind it is in vivo, rat (DS line). As to conditions: 50 mg/kg, orally; for Antipyretic activity, .increment. °C.: at peak time. The method, then: Antipyretic Activity Six male DS line rats, 7 weeks old, weighing 200 to 240 g (Nihon Clea) per one group were used. According to the method of Winder et al. (J. Pharmac. Exp. Ther. 138: 405 (1963)), a suspension of 15% brewer's yeast (Sigma) in physiological saline (1 ml/100 g, b.w.) was injected subcutaneously at 16 hours before measurement of the body temperature to induce pyrexia. After injection of yeast, only water was provided, and each rat was bred separately in a five duplicate cage. At 16, 17 and 18 hours after yeast injection, the rectal temperature was measured by a thermistor thermometer (Takara Kogyo K.K.), and this was taken as the basal body temperature. […] Animals having the body temperature of not lower than 38.5° C. at 18 hours after yeast injection were selected, and a test compound was administered orally (1 ml/100 g, b.w.). As a control, only the solvent was provided. Upon administration, the body temperature of the control group and that of the test compound-administered group were adjusted to the same temperature. The rectal temperature was measured every hour till five hours after administration.

Experiment [4] deals with ART (antigen-responding T-cell). Put plainly: In vitro ART (antigen-responding T-cell) proliferation test. It is filed as cell-based, Lewis rat. As to conditions: Rattus norvegicus, T-cell, read-out: % Inhibition of ART growth.
[5] abbreviates: 5-HETE, read-out: 5-Lipoxygenase inhibitory activity, 5-HETE IC50.
Where [6] appears, read: LTB4, read-out: 5-Lipoxygenase inhibitory activity, LTB4 IC50.

The structures appear in SMILES notation. Where a name gives a salt, the structure may show the parent alone. Read-outs that look alike come from different tables or passages of the source.

Consider `CCCCCCCCCC(=O)NCCCSc1ccncc1` [Example 1], for which the IC50 came to 1.6 µM against cyclooxygenase, 16.8 µM at 5-Lipoxygenase (setting [5]) and 16.1 µM on 5-Lipoxygenase (setting [6]). The inhibition in vivo at 100 mg/kg in experiment [1] (100 mg/kg) was 61%.

Take `CCCCCCCCCC(=O)NCCCSc1ccccn1` [Example 3, 2-[3-(caprylamino)propylthio]pyridine]: the IC50 on 5-Lipoxygenase (setting [5]) amounted to 22.2 µM; at 5-Lipoxygenase (setting [6]) it was 17.5 µM.

As for `O=C1c2ccccc2C(=O)N1CCSc1ccccn1` [Example 4, 2-(2-phthalimidoethylthio)pyridine], the IC50 at 5-Lipoxygenase (setting [5]) came out at 17.4 µM; at 5-Lipoxygenase (setting [6]), 11.8 µM.

Regarding `CCCCCCCCCCCC(=O)NCCCSc1ccncc1` [Example 17, 4-[3-(lauroylamino)propylthio]pyridine], the figures for the IC50 against cyclooxygenase, at 5-Lipoxygenase (setting [5]) and at 5-Lipoxygenase (setting [6]) were 1.5 µM, 17.5 µM and 14.3 µM, respectively.

For the compound `CCCCCCCC/C=C\CCCCCCCC(=O)NCCCSc1ccncc1` [Example 21, 4-[3-(oleoylamino)propylthio]pyridine], the IC50 on 5-Lipoxygenase (setting [5]) stood at 21.5 µM; at 5-Lipoxygenase (setting [6]) it was 16.4 µM.

For `O=C(NCCCSc1ccncc1)c1ccccn1` [Example 42, 4-[3-(2-picolynoylamino)propylthio]pyridine], the inhibition in vivo at 50 mg/kg in experiment [2] stood at 34%; in experiment [1], 51%. Besides, inhibition at cyclooxygenase was half-maximal at 13.1 µM (IC50). Moreover, in experiment [3], the “Antipyretic activity, peak time” value is 1 h. Further, in experiment [3], the “Antipyretic activity, .increment. °C.” value was -0.80 °C.

Turning to `O=C(NCCCSc1ccncc1)c1cccs1` [Example 46, 4-[3-(2-thenoylamino)propylthio]pyridine], in experiment [2], the inhibition in vivo at 50 mg/kg is 39%. On cyclooxygenase, this compound had an IC50 of 7.9 µM. In addition, in experiment [3], the “Antipyretic activity, peak time” value is listed as 4 h and the “Antipyretic activity, .increment. °C.” value was -4.08 °C. Besides, the inhibition in vivo at 50 mg/kg in experiment [1] is 66%.

With `O=C(NCCCSc1ccncc1)c1ccsc1` [Example 54, 4-[3-(3-thiophenecarbonylamino)propylthio]pyridine], in experiment [2], the inhibition in vivo at 50 mg/kg is 45%. The same compound showed an IC50 against cyclooxygenase of 9 µM. Besides, in experiment [3], the “Antipyretic activity, peak time” value was 5 h and the “Antipyretic activity, .increment. °C.” value is -3.50 °C. The inhibition in vivo at 50 mg/kg in experiment [1] worked out at 58%.

For `O=C(NCCCSc1ccncc1)c1cc2ccccc2s1` [Example 57, 4-[3-(thianaphtene-2-carbonylamino)propylthio]pyridine], the inhibition in vivo at 50 mg/kg in experiment [2] was determined as 35%. For the same compound, the IC50 against cyclooxygenase came to 3.6 µM. In experiment [3], the “Antipyretic activity, peak time” value is 4 h and the “Antipyretic activity, .increment. °C.” value was -1.28 °C. Further, the inhibition in vivo at 50 mg/kg in experiment [1] came out at 71%.

`O=C(c1ccccc1)N(CCCSc1ccncc1)Cc1ccccc1` [Example 77, 4-[3-(N-benzyl-N-benzoylamino)propylthio]pyridine hydrochloride]: in experiment [4], the inhibition at 1 µM is 28% and the inhibition at 10 µM is 85%. Besides, the inhibition in vivo at 50 mg/kg in experiment [1] is 62%. In addition, the IC50 at 5-Lipoxygenase (setting [5]) worked out at 3.5 µM. The IC50 on 5-Lipoxygenase (setting [6]) amounted to 3.2 µM.

With `CCCCCCCCCCCCN(CCCSc1ccncc1)C(=O)C(F)(F)F` [Example 94, 4-[3-(N-dodecyl-N-trifluoroacetylamino)propylthio]pyridine], in experiment [4], the inhibition at 1 µM is 33% and the inhibition at 10 µM came to 70%. At 5-Lipoxygenase (setting [5]), the IC50 turned out to be 2.4 µM. The IC50 on 5-Lipoxygenase (setting [6]) amounted to 2 µM.

As for `O=C1c2ccc([N+](=O)[O-])cc2C(=O)N1CSc1ccncc1` [Example 95, 4-[(4-nitrophthalimido)methylthio]pyridine], in experiment [4], the inhibition at 1 µM came out at 20% and the inhibition at 10 µM came to 32%. For the same compound, the IC50 at 5-Lipoxygenase (setting [5]) amounted to 0.044 µM. The IC50 at 5-Lipoxygenase (setting [6]) is 0.033 µM.

Take `O=C1c2ccccc2CN1CCCCSc1ccncc1` [Example 109, 4-[4-(isoindolin-1-on-2-yl)butylthio]pyridine]: the inhibition in vivo at 50 mg/kg in experiment [2] amounted to 25%; in experiment [1], 89%. For the same compound, the IC50 is 6.2 µM against cyclooxygenase, 1.4 µM at 5-Lipoxygenase (setting [5]) and 1.2 µM on 5-Lipoxygenase (setting [6]). The inhibition at 1 µM in experiment [4] was -11%. In addition, in experiment [4], the inhibition at 10 µM was -33%.

Take `O=C(NCCCCSc1ccncc1)c1cc2ccccc2s1` [Example 128, 4-[4-(thianaphthene-2-carbonylamino)butylthio]pyridine]: the IC50 at 5-Lipoxygenase (setting [5]) came out at 6.1 µM; on 5-Lipoxygenase (setting [6]), 5.4 µM.

As for `O=C(c1cc2ccccc2s1)N1CCC(Sc2ccncc2)CC1` [Example 133, 4-[4-(thianaphthene-2-carbonyl)piperidylthio]pyridine], the inhibition in vivo at 50 mg/kg in experiment [2] came to 27%. Moreover, the values for the IC50 on 5-Lipoxygenase (setting [5]) and on 5-Lipoxygenase (setting [6]) were 4.6 µM and 4.3 µM, respectively.

On to `O=c1c2ccccc2n(Cc2ccccc2)c(=O)n1CCCCSc1ccncc1` [Example 149, 3-[4-(4-pyridylthio)butyl]-1-benzylquinazolin-2,4-(1H,3H)-dione], for which, in experiment [4], the inhibition at 1 µM was -10% and the inhibition at 10 µM was found to be 19%. Further, the IC50 on 5-Lipoxygenase (setting [5]) came to 2.3 µM. Moreover, the IC50 at 5-Lipoxygenase (setting [6]) was 2.2 µM.

Consider `O=C1SC(=Cc2ccccc2)C(=O)N1CCSc1ccncc1` [Example 155, 4-[2-(5-benzylidene-2,4-thiazolidinedione)ethylthio]pyridine], for which the inhibition at 1 µM in experiment [4] stood at 4%. Moreover, the inhibition at 10 µM in experiment [4] worked out at 78%. Further, the IC50 at 5-Lipoxygenase (setting [5]) was 3.8 µM; at 5-Lipoxygenase (setting [6]), 3.7 µM.

Values taken from patent publication US5457106A, “Pyridine derivatives, their production and use” (Takeda Chemical Industries, Ltd., priority 1991, dated 1995).
